Test results published in PubChem BioAssay (NCI).
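Results reflect a 48-hour exposure of cells in 96-well plates to compound at five concentrations. At the TGI there is no net growth.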 Where a SMILES comes first, the peptide text is derived from it. The star is where a group is joined. X36 = O=C(c1ccc(-c2ccc(Cl)cc2Cl)o1)*

Experiments:
Assay in all cases: NCI anticancer screen, dose series, 48 h
OVCAR-3 ovarian = tested on: OVCAR-3 ovarian
HOP-62 NSCLC = tested on: HOP-62 NSCLC
NCI-H460 lung = tested on: NCI-H460 lung
RXF 393 renal = tested on: RXF 393 renal
MDA-N = tested on: MDA-N
786-0 renal = tested on: 786-0 renal
NCI-H522 lung = tested on: NCI-H522 lung
RPMI-8226 leukemia = tested on: RPMI-8226 leukemia
IGROV1 ovarian = tested on: IGROV1 ovarian
LOX IMVI melanoma = tested on: LOX IMVI melanoma
CCRF-CEM leukemia = tested on: CCRF-CEM leukemia
SF-295 CNS = tested on: SF-295 CNS
T-47D breast = tested on: T-47D breast
MDA-MB-435 = tested on: MDA-MB-435
MALME-3M melanoma = tested on: MALME-3M melanoma
SW-620 colon = tested on: SW-620 colon
MOLT-4 leukemia = tested on: MOLT-4 leukemia
NCI-H23 lung = tested on: NCI-H23 lung
COLO 205 colon = tested on: COLO 205 colon

Row | Structure (SMILES) | TGI (OVCAR-3 ovarian) | TGI (HOP-62 NSCLC) | TGI (NCI-H460 lung) | TGI (RXF 393 renal) | TGI (MDA-N) | TGI (786-0 renal) | TGI (NCI-H522 lung) | TGI (RPMI-8226 leukemia) | TGI (IGROV1 ovarian) | TGI (LOX IMVI melanoma) | TGI (CCRF-CEM leukemia) | TGI (SF-295 CNS) | TGI (T-47D breast) | TGI (MDA-MB-435) | TGI (MALME-3M melanoma) | TGI (SW-620 colon) | TGI (MOLT-4 leukemia) | TGI (NCI-H23 lung) | TGI (COLO 205 colon)
1 | CCC(C)C(NC(=O)CNC(=O)C(Cc1ccccc1)NC(=O)C1CCCN1C(=O)c1ccc(-c2ccc(Cl)cc2Cl)o1)C(=O)OC (configuration not stated) (X36-PFGI-OMe; configuration not given here) | > 100 µM | > 100 µM | > 100 µM | > 100 µM | > 100 µM | > 100 µM | > 100 µM | > 100 µM | > 100 µM | > 100 µM | > 100 µM | > 100 µM | > 100 µM | > 100 µM | > 100 µM | > 100 µM | > 100 µM | > 100 µM | > 100 µM
2 | O=C(O)c1ccc(S(=O)(=O)c2ccccc2[N+](=O)[O-])cc1 | > 10 µM | > 10 µM | > 10 µM | > 10 µM | > 10 µM | > 10 µM | > 10 µM | > 10 µM | > 10 µM | > 10 µM | > 10 µM | > 10 µM | > 10 µM | > 10 µM | > 10 µM | > 10 µM | > 10 µM | > 10 µM | > 10 µM
3 | COc1ccc(Nc2nc(NS(=O)(=O)c3cc(C)c(Cl)cc3S)n[nH]2)cc1 | > 100 µM | > 100 µM | > 100 µM | > 100 µM | > 100 µM | > 100 µM | > 100 µM | > 100 µM | > 100 µM | > 100 µM | > 100 µM | > 100 µM | > 100 µM | > 100 µM | > 100 µM | > 100 µM | > 100 µM | > 100 µM | > 100 µM
